# In US11612586B2, “Indole regulation of antigen presenting cells” (THE TEXAS A&M UNIVERSITY SYSTEM, priority 2016, dated 2023):
# Entries after “also recorded” stand apart in the source; their conditions may differ.
# Assays:
# HeLa cells = assay: Salmonella invasion of indole-treated HeLa cells (colonization resistance); assay type: cell-based; conditions: host cells treated with indole
# aldh1a2 = aldh1a2 gene expression in BMDCs, real-time qPCR; assay type: cell-based, murine; conditions: day 7 BMDCs cultured with indole from day 3
# Experimental: FIG. 13A: BMDCs were cultured from day 3 with indole (1 mM), retinoic acid (1 uM), or DMF control were assayed for aldehyde dehydrogenase (ALDH) activity using the Aldefluor commercial kit. The ALDH inhibitor, DEAB reagent, was included to control for background fluorescence. Aldefluor fluorescence as a measure of ALDH activity was analyzed by flow cytometry. Data is reported as percentage of Aldefluor positive DCs (left panel) and corresponding MFI values (right panel). Individual dots represent data from five independent experiments. FIG. 13B: Gene expression of aldh1a2 was assayed by real-time qPCR in day 7 BMDCs cultured with indole from day 3. Gene expression was normalized to 18 s ribosomal RNA. Mean of three independent experiments. *p<0.05 by Student's t test.
# Total RNA was extracted from BMDCs using RNeasy Mini Kit (Qiagen) and then retro-transcribed using cDNA Superscript Mastermix (Quanta). Quantitative PCR reactions were carried out in triplicate using Perfecta SYBR Green Fast Mix, Low ROX (Quanta).
# Gene expression levels for each individual sample were normalized to 18 s. Mean relative gene expression was determined and differences were calculated using the 2^−ΔC(t) method.
# CCR9 = CCR9 induction on naïve T cells by conditioned DCs; assay type: cell-based, mouse
# Experimental: FIG. 18 graphically illustrates that indole-conditioned DCs induce CCR9 on naïve T cells upon activation. Naïve CD4+CD25− T cells from OT-II mice were co-cultured with OVA323-339 peptide-loaded BMDCs for 72 hours in the presence of RA as indicated. BMDCs were previously treated with indole, RA, or DMF from day 3. Following 3 days of co-culture, surface staining was performed for flow cytometric analysis.
# Based on the observation that indole induces gut homing markers on developing DCs, it was queried whether indole-conditioned DCs could also confer gut homing markers upon naïve CD4+ T cells. The antigen-specific T cell activation model was used to address this question, and a titration of RA was included as a positive control to induce CCR9. […] Just 10 nM of RA enabled indole-DC co-cultures to achieve over 50% of T cells expressing CCR9 which was similar to RA-DC positive controls, whereas DMF-DC co-cultures with the same concentration of RA added achieved only 10% of CCR9+ T cells.
# Naïve CD4+CD25− T cells of spleen and lymph nodes from OT-II mice were isolated by negative selection via column purification using the Naïve CD4+ T Cell Isolation Kit (Miltenyi Biotec). Naïve CD4+ T cells (>96% pure) were labeled with Cell Proliferation Dye efluor450 (eBioscience) following manufacturer's instructions then co-cultured with OVA peptide-loaded BMDCs at a ratio of 2:1 for 72 hours in a 96-well round-bottom tissue culture plate. BMDCs were previously treated with indole or RA from day 3. On day 7, DCs were washed extensively prior to being loaded with OVA323-339 peptide (10 ug/ml) for 1 hour at 37° C. BMDCs were then washed three times and plated with naïve CD4+ T cells. RA or TGFβ were added to co-cultures as indicated. Following 3 days of culture, cells were stained with antibodies to CD4, CCR9, and LPAM-1 (α4β7). Intracellular staining for Foxp3 was performed using a Foxp3 staining kit (eBioscience). The remaining CD4+ helper T cell lineages Th1, Th2, and Th17 were identified by their cytokine production. […]
# DCs = assay: Antigen-uptake assay in DCs; conditions: FITC-labeled OVA particles
# IL-10 = IL-10 production by BMDC cultures (ELISA); assay type: cell-based, mouse; conditions: indole-conditioned DCs
# Experimental: To determine whether this was a specific downregulation of pro-inflammatory cytokines, production of the canonical DC-produced anti-inflammatory cytokines, IL-10 and TGF-β, was also examined.
# Cytokine concentration in the supernatant of BMDC cultures was assessed using commercially available ELISA kits for IL-10 (Peprotech) and TGF-β (eBioscience) per the manufacturer's instructions.
# Akt = assay: phospho-Akt signaling in BMDMs; assay type: cell-based, mouse
# Experimental: The PI3K/Akt and MAPK/Erk signaling pathways regulate many cellular processes including survival, apoptosis, growth, and cytokine production. […] Specifically, BMDMs were treated with indole (1 mM) or DMF control for 18 hours, then stimulated with LPS (10 ug/ml) or CpG (5 uM) for 30 minutes. Cells were stained for phospho-Akt or phospho-Erk and analyzed by flow cytometry.
# The inventors performed a series of assays where bone marrow derived macrophages (BMDMs), bone marrow derived dendritic cells (BMDCs), and splenic dendritic cells (splenic DCs), were exposed to a series of TDMMs, including indole, indole-3-acetate (I3AT), 5-hydroxyindole (5HI), and indole-3-pyruvate (I3P), as well as indole-3-carbinol (I3C; a plant derived compound) to be used for a positive control (1 mM for 24 hours). The BMDMs and BMDCs were stimulated with LPS for 4 hours and assayed at day 7 for expression of various pro-inflammatory cytokines. In a similar assay, the BMDMs and BMDCs were stimulated with LPS or CpG, respectively, for 15 minutes and assayed for pAKT and pERK signaling, which is a reflection of pro-inflammatory response.
compound,measurement,setting,value
"c1ccc2[nH]ccc2c1 [Indole, indole]",reduction of Salmonella invasion of indole-treated HeLa cells,HeLa cells,70%
same,aldh1a2 expression,aldh1a2,inhibits
same,T cells expressing CCR9,"CCR9; co-culture with DCs conditioned with indole, 10 nM of RA added",over 50%
same,induction of CCR9 on naïve T cells by conditioned BMDCs alone,CCR9; no exogenous RA in the co-culture,insufficient; also recorded: did not induce CCR9
same,particle uptake by DCs,DCs,did not alter particle uptake
same,IL-10 production,IL-10,Neither IL-10 nor TGF-β production were affected
same,pAKT,"Akt; 1 mM TDMM 24 hours, LPS 1 ug/ml 15 minutes",↓
same,dampening of pAkt signaling,"Akt; indole 1 mM 18 hours, LPS (10 ug/ml) or CpG (5 uM) 30 minutes",approximately 50%
